Earlier results, collected in patent US10689462B2, “Therapeutic and imaging compositions and uses thereof” (priority 2013, dated 2020).

Columns and labels:
[1] = room temperature
[2] = within 24 h
[3] = tested on: npc1^−/− mice; details: subcutaneous injection, 4.0 mg/kg of body weight

Substance: hydroxypropyl-β-cyclodextrin [HP-β-CD]
- Solubility in water [1]: 0.65 g/mL
- Fraction cleared from the bloodstream [2]: > 90%
- Effect on survival, hepatopathology and neuropathology [3]: improvement in their survival, hepatopathology, and neuropathology
